Experiment [1] addresses T1, Protein Serine/Threonine Phosphatase, PP2A (Homo sapiens, UniProt P67775).
T1 construct: purchased CEREP (contract assay) 3953
Briefly: CEREP Protein Serine/Threonine Phosphatase, PP2A. Format: biochemical.

Experiment [2] deals with COMT (catechol-O-methyl transferase). Briefly: CEREP COMT (catechol-O-methyl transferase). Type of experiment: biochemical. The settings on record: reference compound; Cat. No. 0457.
Experiment [3] deals with Akt and Erk phosphorylation in MG87TrkA. Briefly: Erk1/2 and Akt phosphorylation assay in MG87TrkA cells. Type of experiment: cell-based, murine. The settings on record: BT13 10–100 μM, NGF positive control. As for the experimental part:
(§1) MG87RET, MG87TrkA, or MG87TrkB were plated on 35 mm tissue culture dishes 1–2 days before the experiment to achieve 90–95% of confluency of the cells at the day of stimulation with tested substances. If necessary, cells were transfected with 4 μg/well of GFRα1-, GFRα3-, or green fluorescent protein (GFP)-expressing plasmid using Lipofectamine 2000 (Invitrogen) for DNA delivery as described by manufacturer. Before the experiment cells were starved in serum-free DMEM containing 15 mM HEPES, pH 7.2 and 1% DMSO for 4 h and stimulated with BT13 or neurotrophic factors. Then cells were washed once with ice-cold PBS containing 1 mM Na3VO4 and 1 mM NaF and lysed on ice in 1 ml per well of RIPA-modified buffer (50 mM Tris-HCl, pH 7.4, 150 mM NaCl, 1 mM EDTA, 1% NP-40, 1% TX-100, 10% glycerol, EDTA-free protease inhibitor cocktail (Roche), 1 mM Na3VO4, 2.5 mg/ml of sodium deoxycholate, 1 mM NaF). Plates were incubated at +4°C on the horizontal shaker for 30 min with vigorous shaking. Afterwards, 80–100 μl aliquot was taken from each well to prepare whole cell lysates. This aliquot was mixed with equal volume of 2x Laemmli loading buffer (4% SDS, 20% glycerol, 10% 2-mercaptoethanol, 0.004% bromphenol blue, 0.125 M Tris HCl, pH 6.8) and boiled for 10 min at 100°C. Remaining cell lysates were used for immunoprecipitation of RET or Trk receptors. […]

For another experiment, the system named is TrkA. Briefly: TrkA phosphorylation assay in MG87TrkA cells. Type of experiment: cell-based. The settings on record: BT13 10–100 μM, NGF positive control. The method, then: as §1
The test system of experiment [4] is adult rat lumbar DRG sensory neurons. Briefly: Neurite outgrowth from cultured DRG neurons. Format: cell-based. The settings on record: NGF 10 ng/ml. As for the experimental part: Cultured lumbar DRG (L3–L5) neurons were prepared using a published method (O'Mullane et al., [2013]). After plating onto poly-L-ornithine (5 μg/ml)/laminin (5 μg/ml) coated coverslips for 1 h, DRG neurons were cultured for 24–30 h in fresh Neurobasal A/B27. GFLs, BT13, NGF, and vehicle control were added at the start of this period for a 24–30 h treatment, except when preceded by pre-treatment (1 h) with inhibitors (50 μM LY294002; 2 μM SU6656, […]; Biomol Research Laboratories, Plymouth Meeting, PA, USA). DRG neurons were then fixed (4% paraformaldehyde) and processed for immunocytochemistry with 1:200 Mouse anti-β III tubulin/AlexaFluor 594 (Sigma-Aldrich Cat# T8660 RRID:AB_477590) and 1:5,000 rabbit anti-calcitonin gene-related peptide/AlexaFluor 488 (Sigma-Aldrich Cat# C8198 RRID:AB_259091) and DAPI for nuclear staining (0.5 μg/ml, Molecular Probes). Image analysis of multichannel 12 bit Zeiss .ZVI or .TIF files (captured with a Zeiss Imager.M1/MRm camera/Zen software; Carl Zeiss Australia, North Ryde, NSW, Australia) was then performed by a researcher blinded to the experimental condition. Neurite initiation was measured by a single parameter (proportion of neurons with neurites longer than the soma diameter). Neurite elongation was measured by batch processing (HCA-Vision software; CSIRO Mathematical and Information Sciences, North Ryde, NSW, Australia) to obtain four parameters—Root number: number of primary neurites; Maximum length: length of longest neurite; Branch points: number of neurite branch points; and Total length: sum of neurite lengths (Kalous and Keast, [2010]; Kalous et al., [2012]). The number of neurons of each immunocytochemical class counted on each coverslip (technical replicates) was 50 for neurite initiation and 20 for neurite elongation. A minimum of three cultures from different rats (biological replicates) were analyzed for each treatment group.

In experiment [5] the test system is Akt and Erk phosphorylation in MG87TrkB. Briefly: Erk1/2 and Akt phosphorylation assay in MG87TrkB cells. As to conditions: BT13 10–100 μM, BDNF positive control. Format: cell-based, murine. As for the experimental part: as §1
For the next experiment, the target named is T2, TrkB (Rattus norvegicus, UniProt Q63604).
T2 construct: expressed in transfected cells; host or cells: MG87 murine fibroblasts (MG87TrkB)
Briefly: TrkB phosphorylation assay in MG87TrkB cells. Type of experiment: cell-based. The settings on record: BT13 10–100 μM, BDNF positive control. As for the experimental part:
as §1

[6] abbreviates: CGRP-positive neurons, vs control, BT13 100 ng/ml.

T2 sequence (Q63604 32-821): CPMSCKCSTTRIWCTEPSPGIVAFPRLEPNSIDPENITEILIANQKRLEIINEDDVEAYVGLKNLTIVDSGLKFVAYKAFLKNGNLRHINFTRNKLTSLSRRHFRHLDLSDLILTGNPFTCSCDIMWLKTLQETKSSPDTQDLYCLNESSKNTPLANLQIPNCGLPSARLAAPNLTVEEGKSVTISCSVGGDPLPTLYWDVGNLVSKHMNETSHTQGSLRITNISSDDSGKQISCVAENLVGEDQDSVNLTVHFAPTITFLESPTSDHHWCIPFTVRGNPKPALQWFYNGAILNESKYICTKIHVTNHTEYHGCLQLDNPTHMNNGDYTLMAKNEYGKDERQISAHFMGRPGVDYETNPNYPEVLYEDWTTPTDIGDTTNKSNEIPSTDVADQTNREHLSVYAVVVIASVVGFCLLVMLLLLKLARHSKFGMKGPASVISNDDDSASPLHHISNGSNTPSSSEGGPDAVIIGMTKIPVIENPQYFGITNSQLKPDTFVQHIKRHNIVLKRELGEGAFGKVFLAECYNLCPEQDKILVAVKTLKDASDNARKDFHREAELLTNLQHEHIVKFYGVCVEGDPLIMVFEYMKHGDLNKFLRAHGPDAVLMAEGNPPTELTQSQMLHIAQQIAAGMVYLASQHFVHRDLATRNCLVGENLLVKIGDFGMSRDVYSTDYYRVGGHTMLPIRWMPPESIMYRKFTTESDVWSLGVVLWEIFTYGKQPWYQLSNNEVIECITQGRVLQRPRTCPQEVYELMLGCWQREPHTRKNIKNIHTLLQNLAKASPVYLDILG
T1 sequence (P67775 whole entry): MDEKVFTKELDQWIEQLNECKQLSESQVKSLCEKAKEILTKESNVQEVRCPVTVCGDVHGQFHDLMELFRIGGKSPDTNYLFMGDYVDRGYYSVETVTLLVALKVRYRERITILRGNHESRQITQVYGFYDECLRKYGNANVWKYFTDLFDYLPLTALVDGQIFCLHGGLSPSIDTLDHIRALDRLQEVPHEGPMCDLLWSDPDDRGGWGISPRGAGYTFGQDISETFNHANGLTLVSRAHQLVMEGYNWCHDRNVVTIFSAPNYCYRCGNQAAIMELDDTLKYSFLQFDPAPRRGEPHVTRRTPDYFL

Turning to `COC[C@@H]([C@H](O)[C@H](O)C(=O)NCC[C@H](C)c1nc(/C=C/C[C@@H]2O[C@]3(C[C@@H](O)[C@@H]2C)O[C@H]([C@H](C[C@H](O)[C@H](C)[C@H](O)[C@H](C)/C=C(C)/C(C)=C/C=C/C(C)=C\C#N)OC)[C@H](OP(=O)(O)O)C3(C)C)co1)N(C)C` [Calyculin A, reference compound], the IC50 – broadly, the concentration that inhibits the measured activity by half – in experiment [1] amounted to 0.49 nM.

On to `O=C(c1cc(O)c(O)c([N+](=O)[O-])c1)c1ccccc1F` [Ro 41-0960, reference compound], for which, in experiment [2], it took 28 nM to reach half-maximal inhibition (IC50).

On to nerve growth factor [NGF], for which the “Akt and Erk phosphorylation” value in experiment [3] is “promoted Akt and Erk phosphorylation”. Further, the “TrkA phosphorylation, Western blotting” value in the experiment with TrkA is “responded”. Moreover, the “neurite initiation or extension” value in experiment [4] (CGRP-negative neurons, ARTN 30 ng/ml, BT13 100 ng/ml) is given as “no effect”. Moreover, the neurite initiation result in experiment [4] (CGRP-positive neurons, ARTN 30 ng/ml, BT13 100 ng/ml, overnight) is “significantly increased”. Besides, the “neurite elongation, root number, mean difference” value in experiment [4] (CGRP-positive neurons, vs control) is reported as 3 ± 1. Moreover, in experiment [4] (setting [6]), the “neurite elongation, branch points, mean difference” value was found to be 48 ± 3; the “neurite elongation, maximum length, mean difference” value amounted to 99 ± 8 μm; the “neurite elongation, total length, mean difference” value is given as 1,421 ± 108 μm. In addition, the “proportion of DRG neurons that expressed CGRP in culture” value in experiment [4] (ARTN 30 ng/ml, BT13 100 ng/ml) was “did not alter”.

B1: brain-derived neurotrophic factor (protein, UniProt P23560 19-247, looked up)
Neurotrophic factor BDNF …: APMKEANIRGQGGLAYPGVRTHGTLESVNGPKAGSRGLTSLADTFEHVIEELLDEDQKVRPNEENNKDADLYTSRVMLSSQVPLEPPLLFLLEEYKNYLDAANMSMRVRRHSDPARRGELSVCDSISEWVTAADKKTAVDMSGGTVTVLEKVPVSKGQLKQYFYETKCNPMGYTKEGCRGIDKRHWNSQCRTTQSYVRALTMDSKKRIGWRFIRIDTSCVCTLTIKRGR
notes: neurotrophin, natural ligand of TrkB
On to B1, for which, in experiment [5], the “Akt and Erk phosphorylation” value is “promoted Akt and Erk phosphorylation”. For the same molecule, the “TrkB phosphorylation, Western blotting” value in the experiment with TrkB is listed as “responded”.

The values above are taken from paper PMC5478727, “A Novel Small Molecule GDNF Receptor RET Agonist, BT13, Promotes Neurite Growth from Sensory Neurons in Vitro and Attenuates Experimental Neuropathy in the Rat” (Frontiers in Pharmacology, 2017).
